Tests used:
cyclooxygenase-1 = biological target: T1, cyclooxygenase-1 (Homo sapiens, UniProt P23219); test: Inhibition of cyclooxygenase-1 in U-937 cells (PGE2 quantitation); format: cell-based; settings: U-937 cells
T1 construct: The cultured U-937 (humane lymphoma cell, obtained from Korean cell line bank) was centrifuged to collect the pellet; endogenous in cells; host or cells: U-937 (human lymphoma cell line, Korean cell line bank)
Description: (§1) In order to investigate pharmacologically the selective inhibition activity against cyclooxygenase-2 enzyme, the inhibitive effects against cyclooxygenase-1 and cyclooxygenase-2 were measured by two methods as follows.
Then, the pellet was diluted with 1×HBSS(Hank's balanced salt solutin) at the concentration of 1×10^6 cells/ml, and 1 ml of them was transferred into each well of 12-well plates, and then dissolved with DMSO. 5μl of the diluted sample solution, and 5μl of DMSO vehicle were added therein and mixed, and the mixture was cultured at 37° C. in Co2 incubator for 15 minutes. Arachidonic acid as a substrate was dissolved in ethanol to prepare a stock solution with a concentration of 10 mM, followed by diluting with 1×HBSS to prepare the solution of 1 mM. 10 μl of 1 mM Arachidonic acid solution was added to each of the treated wells, and the mixture was cultured at 37° C. in CO2 incubator for 30 minutes. The cell solution of each well was collected in the centrifuge tube and was centrifuged at 4° C. for 5 minutes at 10,000 rpm. As PGE2 existed in the supernatant separated from collected cell, the concentration of PGE2 was quantitated by using monoclonal kit from Cayman Chemicals, and the concentration of samples and vehicle were compared to estimate the inhibition ratio (%) of each compound against cyclooxygenase-1. Ultimately, the inhibition effect against the cyclooxygenase-1 enzyme was obtained from the result.

cyclooxygenase-2 = biological target: T2, cyclooxygenase-2 (Mus musculus, UniProt Q05769); test: Inhibition of cyclooxygenase-2 in Raw 264.7 cells treated with interferon γ and LPS (PGE2 EIA); format: cell-based; settings: for Inhibitory effects of cyclooxygenase (COX): COX-2: Raw 264.7 cells; for selectivity of cyclooxygenase-2 compared with the comparative substance (in words): COX-2 versus COX-1
T2 construct: endogenous in cells; host or cells: Raw 264.7 (Korean cell line bank), aspirin-pretreated, induced with interferon gamma and LPS
T2 sequence (Q05769 18-604): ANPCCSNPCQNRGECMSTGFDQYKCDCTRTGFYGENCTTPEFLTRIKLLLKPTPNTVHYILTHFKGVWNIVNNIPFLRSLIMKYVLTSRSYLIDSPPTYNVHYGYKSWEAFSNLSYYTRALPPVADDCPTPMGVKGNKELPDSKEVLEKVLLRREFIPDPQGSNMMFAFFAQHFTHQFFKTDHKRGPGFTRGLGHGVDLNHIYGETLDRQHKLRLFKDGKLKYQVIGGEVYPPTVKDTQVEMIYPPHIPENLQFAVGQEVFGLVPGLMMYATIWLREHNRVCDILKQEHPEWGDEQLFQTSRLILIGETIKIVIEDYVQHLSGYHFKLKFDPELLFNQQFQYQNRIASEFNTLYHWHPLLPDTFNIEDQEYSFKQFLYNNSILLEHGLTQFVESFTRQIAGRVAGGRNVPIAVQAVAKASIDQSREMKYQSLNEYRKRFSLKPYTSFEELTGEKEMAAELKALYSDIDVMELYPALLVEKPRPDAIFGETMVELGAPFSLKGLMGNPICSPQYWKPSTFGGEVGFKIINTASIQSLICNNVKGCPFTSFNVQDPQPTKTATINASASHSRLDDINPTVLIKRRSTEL
Description: as §1
And then, each samples were replaced with new media and cultured for 30 minutes. In addition, the samples was treated with 100 units/ml of interferon Υ and 100 ng/ml of lipopolysaccharide(LPS), and cultured for 18 hours. Then, the media was transferred to other tubes and the PGE 2 was quantitated by using EIA kit from Cayman Chemicals.

T1 sequence (P23219 24-599): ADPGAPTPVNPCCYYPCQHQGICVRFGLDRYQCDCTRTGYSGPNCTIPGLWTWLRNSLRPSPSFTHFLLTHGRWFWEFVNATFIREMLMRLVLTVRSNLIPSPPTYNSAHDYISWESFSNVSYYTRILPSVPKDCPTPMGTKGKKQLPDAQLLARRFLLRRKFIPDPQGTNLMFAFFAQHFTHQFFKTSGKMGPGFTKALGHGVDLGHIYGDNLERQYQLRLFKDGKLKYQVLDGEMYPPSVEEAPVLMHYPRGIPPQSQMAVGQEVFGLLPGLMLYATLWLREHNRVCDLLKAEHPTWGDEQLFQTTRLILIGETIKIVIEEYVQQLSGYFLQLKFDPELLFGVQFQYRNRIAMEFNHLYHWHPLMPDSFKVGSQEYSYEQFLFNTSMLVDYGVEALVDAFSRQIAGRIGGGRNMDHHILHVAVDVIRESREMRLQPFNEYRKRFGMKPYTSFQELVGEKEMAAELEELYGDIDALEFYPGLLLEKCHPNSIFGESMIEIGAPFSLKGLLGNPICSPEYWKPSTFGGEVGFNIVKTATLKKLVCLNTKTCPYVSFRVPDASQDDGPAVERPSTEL

| Inhibitory effects of cyclooxygenase (COX): COX-1 (cyclooxygenase-1; 3 μM) [% inhibition] | Inhibitory effects of cyclooxygenase (COX): COX-1 (cyclooxygenase-1; 10 μM) [% inhibition] | Inhibitory effects of cyclooxygenase (COX): COX-1 (cyclooxygenase-1; 30 μM) [% inhibition] | Inhibitory effects of cyclooxygenase (COX): COX-2 (cyclooxygenase-2; 30 nM) [% inhibition] | Inhibitory effects of cyclooxygenase (COX): COX-2 (cyclooxygenase-2; 100 nM) [% inhibition] | Inhibitory effects of cyclooxygenase (COX): COX-2 (cyclooxygenase-2; 300 nM) [% inhibition] | selectivity of cyclooxygenase-2 compared with the comparative substance (in words) (cyclooxygenase-2) | Compound |
| --- | --- | --- | --- | --- | --- | --- | --- |
| 12.1 | 25.9 | 53.1 | 48.5 | 50.0 | 81.4 |  | Cc1nc(-c2ccccc2)n(-c2ccc(S(N)(=O)=O)cc2)n1 [Example 1, 4-(3-methyl-5-phenyl-[1,2,4]triazole-1-yl)-benzenesulfonamide] |
| 36.9 | 53.4 | 67.8 | 28.8 | 34.4 | 45.7 |  | Cc1nc(-c2ccc(F)cc2)n(-c2ccc(S(N)(=O)=O)cc2)n1 [Example 2, 4-[5-(4-fluoro-phenyl)-3-methyl-[1,2,4]triazole-1-yl]-benzenesulfonamide] |
| 0.1 | 13.8 | 29.7 | 40.0 | 74.1 | 82.9 |  | Cc1nc(-c2ccc(Cl)cc2)n(-c2ccc(S(N)(=O)=O)cc2)n1 [Example 3, 4-[5-(4-chloro-phenyl)-3-methyl-[1,2,4]triazole-1-yl]-benzenesulfonamide] |
| 85.6 | 87.7 | 91.1 | 64.2 | 99.0 | 99.8 | hardly different | Cc1nc(-c2ccc(Br)cc2)n(-c2ccc(S(N)(=O)=O)cc2)n1 [Example 4, 4-[5-(4-bromo-phenyl)-3-methyl-[1,2,4]triazole-1-yl]-benzenesulfonamide] |
| 21.1 | 24.4 | 28.1 | 54.3 | 55.0 | 55.3 |  | Cc1nc(-c2cccc(F)c2)n(-c2ccc(S(N)(=O)=O)cc2)n1 [Example 7, 4-[5-(3-fluoro-phenyl)-3-methyl-[1,2,4]triazole-1-yl]-benzenesulfonamide] |
| 62.0 | 75.1 | 84.7 | 31.3 | 52.6 | 50.5 |  | Cc1nc(-c2cccc(Cl)c2)n(-c2ccc(S(N)(=O)=O)cc2)n1 [Example 8, 4-[5-(3-chloro-phenyl)-3-methyl-[1,2,4]triazole-1-yl]-benzenesulfonamide] |
| 78.7 | 81.9 | 89.5 | 66.5 | 89.2 | 99.2 | hardly different | Cc1nc(-c2cccc(Br)c2)n(-c2ccc(S(N)(=O)=O)cc2)n1 [Example 9, 4-[5-(3-bromo-phenyl)-3-methyl-[1,2,4]triazole-1-yl]-benzenesulfonamide] |
| 38.8 | 42.0 | 45.6 | 42.1 | 54.2 | 68.8 |  | COc1cccc(-c2nc(C)nn2-c2ccc(S(N)(=O)=O)cc2)c1 [Example 10, 4-[5-(3-methoxy-phenyl)-3-methyl-[1,2,4]triazole-1-yl]-benzenesulfonamide] |
| 54.0 | 61.3 | 67.2 | 25.0 | 25.2 | 37.7 |  | COc1ccccc1-c1nc(C)nn1-c1ccc(S(N)(=O)=O)cc1 [Example 11, 4-[5-(2-methoxy-phenyl)-3-methyl-[1,2,4]triazole-1-yl]-benzenesulfonamide] |
| 63.8 | 65.9 | 76.8 | 37.9 | 56.1 | 59.3 |  | COc1cc(OC)cc(-c2nc(C)nn2-c2ccc(S(N)(=O)=O)cc2)c1 [Example 13, 4-[5-(3,5-dimethoxy-phenyl)-3-methyl-[1,2,4]triazole-1-yl]-benzenesulfonamide] |

| Compound | Inhibitory effects of cyclooxygenase (COX): COX-1 (cyclooxygenase-1; 3 μM) [% inhibition] | Inhibitory effects of cyclooxygenase (COX): COX-1 (cyclooxygenase-1; 10 μM) [% inhibition] | Inhibitory effects of cyclooxygenase (COX): COX-1 (cyclooxygenase-1; 30 μM) [% inhibition] | Inhibitory effects of cyclooxygenase (COX): COX-2 (cyclooxygenase-2; 30 nM) [% inhibition] | Inhibitory effects of cyclooxygenase (COX): COX-2 (cyclooxygenase-2; 100 nM) [% inhibition] | Inhibitory effects of cyclooxygenase (COX): COX-2 (cyclooxygenase-2; 300 nM) [% inhibition] | selectivity of cyclooxygenase-2 compared with the comparative substance (in words) (cyclooxygenase-2) |
| --- | --- | --- | --- | --- | --- | --- | --- |
| Cc1ccc(-c2nc(C)nn2-c2ccc(S(N)(=O)=O)cc2)cc1 [Example 5, 4-(3-methyl-5-p-toly-[1,2,4]triazole-1-yl)-benzenesulfonamide] | 48.6 | 61.1 | 79.7 | 45.3 | 53.3 | 75.2 |  |
| COc1ccc(-c2nc(C)nn2-c2ccc(S(N)(=O)=O)cc2)cc1 [Example 6, 4-[5-(4-methoxy-phenyl)-3-mehtyl-[1,2,4]triazole-1-yl]-benzenesulfonamide] | 78.6 | 85.6 | 94.5 | 68.8 | 99.2 | 99.9 | hardly different |
| COc1ccc(-c2nc(C)nn2-c2ccc(S(N)(=O)=O)cc2)cc1OC [Example 12, 4-[5-(3,4-dimethoxy-phenyl)-3-mehtyl-[1,2,4]triazole-1-yl]-benzenesulfonamide] | 27.3 | 34.3 | 37.7 | 30.3 | 55.8 | 70.4 |  |

Reference: patent US7135572B2 (CJ Corp, priority 2001, dated 2006)
